Experimental data as given in the supplement of paper PMC10307832.

Key:
Test in all cases: relative viability (nuclei count vs DMSO), 5 days (fraction); higher = more cells survive
[1] = compound: CCC1=CN=CN=C1N2CCN(CC2)CC3=NC4=C(N3)C=C(C=C4)C(F)(F)F + COc1cccc2cc(-c3nc([C@H]4CC[C@H](C(=O)O)CC4)n4ncnc(N)c34)[nH]c12 [OSI-027] (partner 0.5 µM)
Method in brief: (§1)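 Cells from lung cancer lines were seeded into 1536-well plates and, one day later, dosed by pin tool. Treatments were either a single drug or a fixed dose of an anchor drug with five library-drug doses (not always all listed) in √10 steps. After 5 days, nuclei were stained in a one-step fixation (final 0.05% Triton X-100, 1% formaldehyde, 1 ug/ml Hoechst) and counted on 4× images, and relative viability is the treated-to-vehicle nuclei ratio, as the median of duplicate plates.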

[2] = compound: CCC1=CN=CN=C1N2CCN(CC2)CC3=NC4=C(N3)C=C(C=C4)C(F)(F)F + CS(=O)(=O)N1CCN(Cc2cc3nc(-c4cccc5[nH]ncc45)nc(N4CCOCC4)c3s2)CC1 [Pictilisib] (partner 1 µM)
Method in brief: as §1

Mirin + Alpelisib = compound: N=C1NC(=O)/C(=C/c2ccc(O)cc2)S1 [Mirin] + Cc1nc(NC(=O)N2CCC[C@H]2C(N)=O)sc1-c1ccnc(C(C)(C)C(F)(F)F)c1 [Alpelisib] (partner 2 µM)
Method in brief: as §1

Mirin + Dasatinib = compound: N=C1NC(=O)/C(=C/c2ccc(O)cc2)S1 [Mirin] + Cc1nc(Nc2ncc(C(=O)Nc3c(C)cccc3Cl)s2)cc(N2CCN(CCO)CC2)n1 [Dasatinib] (partner 0.075 µM)
Method in brief: as §1

UMC-11
relative viability ([1]; first compound 0.04 µM): 0.464
relative viability ([1]; first compound 0.1265 µM): 0.495
relative viability ([1]; first compound 0.4 µM): 0.417
relative viability ([1]; first compound 1.265 µM): 0.445
relative viability ([1]; first compound 4 µM): 0.406
relative viability ([2]; first compound 0.04 µM): 0.723
relative viability ([2]; first compound 0.1265 µM): 0.832
relative viability ([2]; first compound 0.4 µM): 0.706
relative viability ([2]; first compound 1.265 µM): 0.548
relative viability ([2]; first compound 4 µM): 0.741
relative viability (Mirin + Alpelisib; first compound 0.25 µM): 1.03
relative viability (Mirin + Alpelisib; first compound 0.7906 µM): 0.958
relative viability (Mirin + Alpelisib; first compound 2.5 µM): 0.96
relative viability (Mirin + Alpelisib; first compound 7.906 µM): 0.935
relative viability (Mirin + Alpelisib; first compound 25 µM): 0.572
relative viability (Mirin + Dasatinib; first compound 0.25 µM): 0.45
relative viability (Mirin + Dasatinib; first compound 0.7906 µM): 0.424
relative viability (Mirin + Dasatinib; first compound 2.5 µM): 0.493
relative viability (Mirin + Dasatinib; first compound 7.906 µM): 0.415
relative viability (Mirin + Dasatinib; first compound 25 µM): 0.438
